Experimental findings from ChEMBL document CHEMBL1158306, “Chlorinated annonaceous acetogenins and their bioactivities” (J Nat Prod, 1996) are described below.

In brackets after ≈: the same amount, converted by molar mass. Some results are limits rather than exact numbers.

For one data set, the system named is MCF7. The data set can be described thus: Cytotoxicity against human MCF7 cells after 7 days by MTT assay. It is filed as functional. Particulars: MCF7, 168 h, read-out: ED50 (the source's name). A general note: Formazan colour is commonly taken as a measure of viable cells.
For the next data set, the system named is A498. The data set can be described thus: Cytotoxicity against human A498 cells after 7 days by MTT assay. It is filed as functional. The note with it: A498, 168 h, read-out: ED50 (the source's name).
The next data set deals with A549. The data set can be described thus: Cytotoxicity against human A549 cells after 7 days by MTT assay. The note with it: A549, 168 h, read-out: ED50 (the source's name). It is filed as functional.
For a further data set, the system named is HT-29. The data set can be described thus: Cytotoxicity against human HT29 cells after 7 days by MTT assay. It counts as functional. Particulars: for EC50: Homo sapiens, HT-29, 168 h, read-out: ED50 (the source's name).
The subject of the next data set is PC-3. The data set can be described thus: Cytotoxicity against human PC3 cells after 7 days by MTT assay. Particulars: PC-3, 168 h, read-out: ED50 (the source's name). It is filed as functional.
For another data set, the system named is MIA PaCa-2. The data set can be described thus: Cytotoxicity against human MIAPaCa2 cells after 7 days by MTT assay. It is filed as functional. Particulars: MIA PaCa-2, 168 h, read-out: ED50 (the source's name).
Data set [1] can be described thus: Toxicity in brine shrimp larvae. It counts as organism-based. Particulars: artemia, in vivo.

For `COc1cccc2c1C(=O)c1c(O)c3c(c(O)c1C2=O)C[C@@](O)(C(=O)CO)C[C@@H]3O[C@H]1C[C@H](N)[C@H](O)[C@H](C)O1` [DOXORUBICIN], the EC50 in the data set on MCF7 came out at 0.209 µg/mL (≈ 0.385 µM); in the data set on A498, 0.00649 µg/mL (≈ 0.0119 µM); in the data set with A549, 0.0243 µg/mL (≈ 0.0447 µM); in the data set with HT-29, 0.0346 µg/mL (≈ 0.0637 µM); in the data set on PC-3, 0.0262 µg/mL (≈ 0.0482 µM); in the data set with MIA PaCa-2, 0.0079 µg/mL (≈ 0.0145 µM).
As a reminder, the LC50 is the concentration lethal to half of the exposed cells or organisms. In the case of `CCCCCCCCCCCCCCC(Cl)[C@@H]1CC[C@H]([C@@H]2CC[C@@H](CCCCC[C@H](Cl)CC3=C[C@H](C)OC3=O)O2)O1` (stereo not given in full), the EC50 in the data set on MCF7 was more than 10 µg/mL; in the data set on A498 it was 2.47 µg/mL (≈ 4.01 µM); in the data set with A549, 2.39 µg/mL (≈ 3.88 µM); in the data set on HT-29, more than 10 µg/mL; in the data set on PC-3, 0.755 µg/mL (≈ 1.23 µM); in the data set on MIA PaCa-2 it was 1.16 µg/mL (≈ 1.88 µM). The LC50 in data set [1] was found to be 31.9 µg/mL (≈ 51.8 µM).
As for `CCCCCCCCCCCCCC[C@@H](O)[C@H](O)CC[C@H](O)[C@@H]1CC[C@@H](CCCCC[C@@H](O)CC2=C[C@H](C)OC2=O)O1` [GIGANTETROCIN A], the figures for the EC50 with MCF7 and in the data set with A549 were 0.63 µg/mL (≈ 1.06 µM) and 0.25 µg/mL (≈ 0.419 µM), respectively. In addition, in the data set with HT-29, the ED50 is recorded as 4.1 ×10⁻⁵ ug/ml. This compound returned an LC50 in data set [1] of 2.6 µg/mL (≈ 4.36 µM).
As for `CCCCCCCCCCCCCC[C@H](O)[C@@H]1CC[C@@H]([C@@H]2CC[C@@H](CCCCC[C@@H](O)CC3=C[C@H](C)OC3=O)O2)O1` [ASIMILOBIN], the EC50 in the data set with HT-29 was 0.063 µg/mL (≈ 0.109 µM).
As for `CCCCCCCCCCCCCC[C@@H](O)[C@H](O)CC[C@H](O)[C@@H]1CC[C@@H](CCCCC[C@H](Cl)CC2=C[C@H](C)OC2=O)O1`, the EC50 with MCF7 was 5.74 µg/mL (≈ 9.33 µM); in the data set with A498 it was more than 10 µg/mL; with A549, more than 10 µg/mL; in the data set on HT-29, 0.38 µg/mL (≈ 0.618 µM); with PC-3, more than 10 µg/mL; with MIA PaCa-2 it was more than 10 µg/mL. Also, in data set [1], the median lethal concentration (LC50) stood at 54.6 µg/mL (≈ 88.7 µM).
